*1 amine or outer side, *2 acyl side, *3 side chain or, on linkers, in order; H or OH if unused. Where a SMILES comes first, the peptide text is derived from it. Bridges are numbered along the chain shown (N, C = ends). [ ]: non-standard residue; d: D form. The star is where a group is joined. ξ: configuration not given here. Phe(3-OMe,4-CONHMe) = CNC(=O)c1ccc(C[C@H](N)C(=O)O)cc1OC; X17 = CC(C)C[C@@H](C(=O)[*:2])C(C)C(=O)CCCN(C)[*:1]; Glu(NHSO2Me) = CS(=O)(=O)NC(=O)CC[C@H](N)C(=O)O; X11 = CNC(=O)c1ccc(CCN(CC(=O)[*:2])[*:1])cc1OC; NMePhe(3-Cl) = CN[C@@H](Cc1cccc(Cl)c1)C(=O)O; ξGln(SO2Me) = CS(=O)(=O)NC(=O)CCC(N)C(=O)O; NMehPhe = CN[C@@H](CCc1ccccc1)C(=O)O; Propyl(2,2-Me2,3-OH) = CC(C)(CO)C*; X7 = O=C(C[C@H](COCCO)N[*:1])[*:2]; NMeF = CN[C@@H](Cc1ccccc1)C(=O)O; NMeGABA = CN(CCCC(=O)[*:2])[*:1]; NMeI = CC[C@H](C)[C@H](NC)C(=O)O; NMeD = CN[C@@H](CC(=O)O)C(=O)O; CH2CH(OH)CF3 = OC(C*)C(F)(F)F; NMeL = CN[C@@H](CC(C)C)C(=O)O; Butyl(3R-OH) = C[C@@H](O)CC*; NMeV = CN[C@H](C(=O)O)C(C)C; NMeAbu = CC[C@H](NC)C(=O)O; NMeA = CN[C@@H](C)C(=O)O; Piperidide = C1CCN(*)CC1; NBuGly = CCCCNCC(=O)O; ξV = CC(C)C(N)C(=O)O; Ethyl(2-OH) = OCC*; Sar = CNCC(=O)O; tBu = CC(C)(C)* Some results are limits rather than exact numbers.

The nature of one series: in vitro. The conditions noted are these: human, Caco-2, Caco-2.
On to `CC(C)C[C@@H]1NC(=O)[C@H](CC(C)C)C(C)C(=O)CCCN(C)C(=O)C[C@@H](C(=O)N2CCCCC2)NC(=O)[C@H](CC(C)C)N(C)C(=O)[C@H](CC(C)C)N(C)C(=O)[C@H](CC(C)C)NC(=O)[C@H](CC(C)C)N(C)C(=O)C(CCC(=O)NS(C)(=O)=O)NC(=O)[C@H](Cc2ccccc2)N(C)C(=O)[C@H](Cc2ccccc2)N(C)C1=O` (stereo partly drawn) [pd68] ([X17]L[NMeF][NMeF][ξGln(SO2Me)][NMeL]L[NMeL][NMeL]D-Piperidide; lactam N-10), for which the Papp was 0.1 ×10⁻⁶ cm/s.

`CCCCN1CC(=O)N(C)[C@@H](CC(C)C)C(=O)N[C@@H](CC(C)C)C(=O)N(C)[C@@H](Cc2ccccc2)C(=O)N(C)[C@@H](C(C)C)C(=O)N[C@H](C(=O)N2CCCCC2)CC(=O)N[C@H](CC(C)C)C(=O)N(C)[C@@H](Cc2cccc(Cl)c2)C(=O)N[C@@H](CCC(=O)NS(C)(=O)=O)C(=O)N(C)[C@@H](CC(C)C)C(=O)N[C@@H]([C@@H](C)O)C1=O` [pd59] ([dL][NMePhe(3-Cl)][Glu(NHSO2Me)][NMeL]T[NBuGly][NMeL]L[NMeF][NMeV]D-Piperidide; lactam N-11) gave a Papp below 0.0088 ×10⁻⁶ cm/s.

Staying with this series, now noted: human, Caco-2, Caco-2 (cm/sec).
`CC[C@H](C)[C@@H]1NC(=O)[C@H](CC(C)C)N(C)C(=O)CCCN(C)C(=O)C[C@@H](C(=O)N2CCCCC2)NC(=O)[C@H](CC(C)C)N(C)C(=O)[C@H](CC(C)C)N(C)C(=O)[C@H]([C@@H](C)O)NC(=O)[C@H](CC(C)C)N(C)C(=O)[C@H](COCC(C)(C)CO)NC(=O)[C@H](Cc2ccccc2)N(C)C(=O)[C@H](Cc2ccccc2)N(C)C1=O` [AP120] ([NMeGABA][NMeL]I[NMeF][NMeF]S(Propyl(2,2-Me2,3-OH))[NMeL]T[NMeL][NMeL]D-Piperidide; lactam N-11) yielded a Papp of 1.1 ×10⁻⁶ cm/s.

`CC(C)C[C@@H]1NC(=O)[C@H](Cc2ccccc2)N(C)C(=O)[C@H](COC(C)(C)C)NC(=O)[C@H](Cc2ccccc2)N(C)C(=O)[C@H](C)N(C)C(=O)[C@H](CC(C)C)N(C)C(=O)[C@H]2CCCN2C(=O)C[C@@H](C(=O)N2CCCCC2)N(C)C(=O)[C@H](Cc2ccccc2)N(C)C(=O)[C@H]([C@@H](C)O)NC(=O)[C@H](C(C)C)N(C)C1=O` [pd219] ([dP][NMeL][NMeA][NMeF]S(tBu)[NMeF]L[NMeV]T[NMeF][NMeD]-Piperidide; lactam N-11): the Papp is 1.1 ×10⁻⁶ cm/s.

`CCCCN1CC(=O)N(C)[C@@H](CC(C)C)C(=O)N[C@@H](Cc2ccc(C(=O)NC)c(OC)c2)C(=O)N(C)[C@@H](CC(C)C)C(=O)N(C)[C@@H](CC(C)C)C(=O)N[C@H](C(=O)N2CCCCC2)CC(=O)N[C@H](CC(C)C)C(=O)N(C)[C@@H](Cc2ccccc2)C(=O)N[C@@H](C(C)C)C(=O)N(C)[C@@H](CC(C)C)C(=O)N[C@@H]([C@@H](C)O)C1=O` [AP28] ([dL][NMeF]V[NMeL]T[NBuGly][NMeL][Phe(3-OMe,4-CONHMe)][NMeL][NMeL]D-Piperidide; lactam N-11) registered a Papp of 0.38 ×10⁻⁶ cm/s.

Compound `CC[C@H](C)[C@@H]1NC(=O)[C@H](CC(C)C)N(C)C(=O)CCCN(C)C(=O)C[C@@H](C(=O)N2CCCCC2)NC(=O)[C@H](CC(C)C)N(C)C(=O)[C@H](CC(C)C)N(C)C(=O)[C@H]([C@@H](C)O)NC(=O)[C@H](CC(C)C)N(C)C(=O)C[C@H](COCCO)NC(=O)[C@H](CC(C)C)N(C)C(=O)[C@H](Cc2cccc(Cl)c2)N(C)C1=O` [AP22] ([NMeGABA][NMeL]I[NMePhe(3-Cl)][NMeL][X7][NMeL]T[NMeL][NMeL]D-Piperidide; lactam N-11) registered a Papp of 0.23 ×10⁻⁶ cm/s.

`CCCCN1CC(=O)N(C)[C@@H](CC(C)C)C(=O)N[C@H](C(=O)N2CCCCC2)CC(=O)N(C)[C@@H](C)C(=O)N[C@@H](COCC(C)(C)CO)C(=O)N(C)[C@@H](CC(C)C)C(=O)N(C)[C@@H](Cc2ccccc2)C(=O)N[C@@H](C(C)C)C(=O)N(C)[C@@H](Cc2ccccc2)C(=O)N(C)[C@@H](CC(C)C)C(=O)N[C@@H]([C@@H](C)O)C1=O` [AP121] ([NMeA]S(Propyl(2,2-Me2,3-OH))[NMeL][NMeF]V[NMeF][NMeL]T[NBuGly][NMeL]D-Piperidide; lactam N-11) returned a Papp of 3.1 ×10⁻⁶ cm/s.

`CC[C@H](C)[C@@H]1NC(=O)[C@H](CC(C)C)N(C)C(=O)CN(C)C(=O)C[C@@H](C(=O)N2CCCCC2)NC(=O)[C@H](C)N(C)C(=O)[C@H](COC(C)(C)C)NC(=O)[C@H](CC(C)C)N(C)C(=O)[C@H](CC(C)C)N(C)C(=O)CN(C)C(=O)[C@H](Cc2c[nH]c3ccccc23)NC(=O)[C@H](CC(C)C)N(C)C1=O` [pd103] ([Sar][NMeL]I[NMeL]W[Sar][NMeL][NMeL]S(tBu)[NMeA]D-Piperidide; lactam N-11) had a Papp of 0.093 ×10⁻⁶ cm/s.

`CC[C@H](C)[C@@H]1NC(=O)[C@H](CC(C)C)N(C)C(=O)CN(C)C(=O)C[C@@H](C(=O)N2CCCCC2)NC(=O)[C@H](CC(C)C)N(C)C(=O)[C@H](COC(C)(C)C)NC(=O)[C@H](CC(C)C)N(C)C(=O)[C@H](Cc2ccccc2)N(C)C(=O)CN(CCc2ccc(C(=O)NC)c(OC)c2)C(=O)[C@H]([C@@H](C)O)NC(=O)[C@H](CC)N(C)C1=O` [AP218] ([Sar][NMeL]I[NMeAbu]T[X11][NMeF][NMeL]S(tBu)[NMeL]D-Piperidide; lactam N-11) showed a Papp of 0.55 ×10⁻⁶ cm/s.

Consider `CC(C)C[C@@H]1NC(=O)[C@H](Cc2ccccc2)N(C)C(=O)C(C(C)C)NC(=O)C[C@@H](C(=O)N2CCCCC2)NC(=O)[C@H](Cc2ccccc2)N(C)C(=O)[C@H](Cc2ccccc2)N(C)C(=O)[C@H](COC(C)(C)C)NC(=O)[C@H](CC(C)C)N(C)C(=O)CN(C)C(=O)[C@H]([C@@H](C)O)NC(=O)[C@H](CC(C)C)N(C)C1=O` (stereo partly drawn) [pd215] ([ξV][NMeF]L[NMeL]T[Sar][NMeL]S(tBu)[NMeF][NMeF]D-Piperidide; lactam N-11), for which the Papp is 1.2 ×10⁻⁶ cm/s.

With `CC(C)C[C@H]1C(=O)N[C@@H](COCC[C@@H](C)O)C(=O)N(C)[C@@H](Cc2ccccc2)C(=O)N(C)[C@@H](Cc2cccc(Cl)c2)C(=O)N[C@@H](COC(C)(C)C)C(=O)N(C)[C@@H](CC(C)C)C(=O)N[C@@H]([C@@H](C)O)C(=O)N(C)[C@@H](CC(C)C)C(=O)N(C)[C@@H](CC(C)C)C(=O)N[C@H](C(=O)N2CCCCC2)CC(=O)N(C)CCCC(=O)N1C` [AP115] ([NMeGABA][NMeL]S(Butyl(3R-OH))[NMeF][NMePhe(3-Cl)]S(tBu)[NMeL]T[NMeL][NMeL]D-Piperidide; lactam N-11), the Papp was 0.27 ×10⁻⁶ cm/s.

In turn, `CC(C)C[C@@H]1NC(=O)[C@H](CCc2ccccc2)N(C)C(=O)[C@H](CCc2ccccc2)N(C)C(=O)[C@H](COCCO)NC(=O)[C@H](CC(C)C)N(C)C(=O)CCCN(C)C(=O)C[C@@H](C(=O)N2CCCCC2)NC(=O)[C@H](CC(C)C)N(C)C(=O)[C@H](CC(C)C)N(C)C(=O)[C@H]([C@@H](C)O)NC(=O)[C@H](CC(C)C)N(C)C1=O` [Compound A03] ([NMeGABA][NMeL]S(Ethyl(2-OH))[NMehPhe][NMehPhe]L[NMeL]T[NMeL][NMeL]D-Piperidide; lactam N-11) returned a Papp of 0.32 ×10⁻⁶ cm/s.

The series is the same for the next values; noted with them: human, Caco-2, Caco-2 (membrane permeability).
Regarding `CC[C@H](C)[C@H]1C(=O)N[C@@H]([C@@H](C)O)C(=O)N(C)CC(=O)N(C)[C@@H](CC(C)C)C(=O)N[C@H](C(=O)N2CCCCC2)CC(=O)N(C)[C@@H](C(C)C)C(=O)N[C@@H](COCC(O)C(F)(F)F)C(=O)N(C)[C@@H](CC(C)C)C(=O)N(C)[C@@H](Cc2ccccc2)C(=O)N[C@@H](CC(C)C)C(=O)N(C)[C@@H](Cc2ccccc2)C(=O)N1C` (stereo partly drawn) [Compound C08] ([NMeV]S(CH2CH(OH)CF3)[NMeL][NMeF]L[NMeF][NMeI]T[Sar][NMeL]D-Piperidide; lactam N-11), the Papp worked out at 0.6 ×10⁻⁶ cm/s.

As a reminder, the Papp is a coefficient for how fast a substance crosses the barrier. A lower Papp goes with poor permeation.

These data come from patent US20230096766A1, “AMINO ACID HAVING FUNCTIONAL GROUP CAPABLE OF INTERMOLECULAR HYDROGEN BONDING, PEPTIDE COMPOUND CONTAINING SAME AND METHOD FOR PRODUCTION THEREOF” (Chugai Seiyaku Kabushiki Kaisha, priority 2018, published 2023).
